Laboratory results taken from US11040952B2, “Phthalazinone compound, method for preparation thereof, pharmaceutical composition thereof, and use thereof” (SHANGHAI INSTITUTE OF MATERIA MEDICA, CHINESE ACADEMY OF …, priority 2017, dated 2021).

Tests used:
[1] = MTT assay for cytotoxicity; type: cell-based, Human; conditions: human, HepG2.2.15 cells, half (50%) lethal concentration
Procedure: (§1) Human hepatoblastoma cell line HepG2.2.15 stably transfected with full-length HBV (provided by Shanghai Institute of Materia Medica, Chinese Academy of Sciences)
(§2) HepG2.2.15 cells were cultured and passaged according to conventional methods. DMEM containing 10% (v/v) bovine serum and the selective antibiotic G418 was used as a medium, the cells were cultured in an incubator at 37° C. under 5% CO2 for 8 days (the medium was exchanged on the 4th day).
(§3) The test compounds were formulated with DMSO into a 40 mM stock solution, which was then prepared into a solution at the defined highest concentration using a DMEM medium containing 10% Hyclone™ Fetal Bovine Serum, followed by diluting the same; the positive drug was lamivudine, which was also prepared into a solution at the defined concentration with the DMEM medium containing 10% Hyclone™ Fetal Bovine Serum.
HepG2.2.15 cells were seeded at 5×10^3 cells/well in a 96-well plate, and cultured for eight days in the presence of the compounds according to the above method, and then 200 μl of the supernatant was taken out, followed by addition of the MTT solution. After 4 hours of culture, a lysate was added. After 12 hours of culture, the OD570 was measured on a microplate reader. By comparing with the absorbance of the control well, the percentage of viable cells was calculated, and CC50, the concentration required for the reduction of cell viability by 50%, was calculated.

HBV = HBV DNA content in the supernatant of cell culture (real-time PCR); type: cell-based, hepatitis B virus (HBV); conditions: Hepatitis B virus, HepG2.2.15, 192 h, inhibition of HBV DNA replication, HepG2.2.15 supernatant, 8 days
Procedure: as §1, §2, §3
HepG2.2.15 cells were treated with compounds at different concentrations for 8 days (the medium was exchanged on the 4th day), and the supernatant was aspirated, and the HBV DNA contained in the mature virus particles in the supernatant was quantitated by using a real-time PCR method.
1) The supernatant DNA from a 96-well plate, 200 μl/well, was collected, wherein the contents in the duplicate wells were collected into a same EP tube, and centrifuged at 4000 rcf for 5 min, and the supernatant was collected;
2) 200 μl of the supernatant was added into a 1.5 ml EP tube, added with 20 μl of proteinase K and 200 μl of Buffer AL (Qiagen, DNeasy® Blood & Tissue Kit), vortexed to be mixed thoroughly, and incubated at 56° C. for 10 min;
3) 200 μl of ethanol was added and vortexed to be mixed thoroughly;
4) all the liquid obtained from step 3) was added into a DNeasy Mini spin column (Qiagen, DNeasy® Blood & Tissue Kit) placed in a 2 ml waste liquid collection tube, and centrifuged at 6000 rcf for 1 min, and the supernatant was discarded;
5) the DNeasy Mini spin column was placed in a new 2 ml waste liquid collection tube, added with 500 μl of Buffer AW1 (Qiagen, DNeasy® Blood & Tissue Kit), and centrifuged at 6000 rcf for 1 min, and the supernatant was discarded;
6) the DNeasy Mini spin column was placed in a new 2 ml waste liquid collection tube, added with 500 μl of Buffer AW2, (Qiagen, DNeasy® Blood & Tissue Kit), and centrifuged at 20000 rcf for 3 min, and the supernatant was discarded;
7) the DNeasy Mini spin column was placed in anew 1.5 ml EP tube, 50 μl of Buffer AE (Qiagen, DNeasy® Blood & Tissue Kit) was pipetted and directly applied onto the membrane of the DNeasy Mini spin column, which was then left at room temperature for 5 min, and centrifuged at 6000 rcf for 1 min to elute the DNA from the membrane, the DNeasy Mini spin column was discarded, and the DNA sample was collected and stored at −20° C.
1) Standard curve: 1e^7-1e^4 IU/ml, the sample amount was 1 μl, a blank well was set so as to check whether the reaction system is polluted or not;
2) 1 μl of a DNA sample was added in sequence;
3) Addition of enzyme and reaction buffer: two tubes of the reaction solution were first added into the enzyme, mixed well and centrifuged slightly, placed on ice, added with the sample, followed by addition of 19 μl of the enzyme reaction solution, wherein, during the addition, the DNA sample should be sure of not being touched to cause contamination;
4) the sample was sealed with a sealing film and centrifuged;
Stage 2: 10 cycles • Step 1: 93° C., 45 s • Step 2: 55° C., 1 min Stage 3: 45 cycles • Step 1: 93° C., 30 s • Step 2: 55° C., 45 s
Detection: data were collected after completing the step 2 (55° C., 45 s) of the stage 3.
The experimental data were processed by using the Origin software and IC50 was calculated.

Structure (SMILES) | CC50 at 8 days [1] [µM] | IC50 (HBV) [nM]
O=c1c2ccccc2c(-c2ccc(CN3CCOCC3)nc2F)nn1Cc1ccc(Cl)cc1 [Compound I-29] | > 100 | 4600
CC(=O)OCc1ccc(-c2nn(Cc3ccc(C#N)cc3)c(=O)c3ccccc23)c(F)n1 [IV-23] | > 100 | 4500
COCCCNc1nc(F)c(-c2nn(Cc3ccc(C#N)cc3)c(=O)c3ccccc23)cc1Cl [IV-33] | 181 | < 97.7
[2H]C([2H])(NC)c1ccc(-c2nn(Cc3ccc(Cl)cc3)c(=O)c3ccccc23)c(F)n1 [Compound I-38] | 81 | 800
Cc1ccc(-c2nn(Cc3ccc(C#N)cc3)c(=O)c3cc(F)c(F)cc23)c(F)n1 [Compound V-10] | 47.9 | 700
COC(=O)CCNc1nc(F)c(-c2nn(Cc3ccc(C#N)cc3)c(=O)c3ccccc23)cc1Cl [IV-73] | > 100 | 215
N#Cc1ccc(Cn2nc(-c3ccc(NC4COC4)nc3F)c3ccccc3c2=O)cc1 [IV-16] | 88.3 | 1000
N#Cc1ccc(Cn2nc(-c3ccc(NCCC(F)(F)F)nc3F)c3ccccc3c2=O)cc1 [IV-83] | > 100 | 413
CCOC(=O)CCCNc1nc(F)c(-c2nn(Cc3ccc(C#N)cc3)c(=O)c3ccccc23)cc1Cl [IV-36] | > 100 | 482
O=c1c2ccccc2c(-c2ccncc2)nn1Cc1ccc(Cl)cc1 [Compound I-1] | > 100 | 7300
O=c1c2ccccc2c(-c2ccc(N3CCC3)nc2F)nn1Cc1ccc(Cl)cc1 [Compound I-18] | 42.9 | 1200
COCc1ccc(-c2nn(Cc3ccc(C#N)cc3)c(=O)c3ccccc23)c(F)n1 [IV-22] | > 100 | 3500
O=c1c2ccccc2c(-c2cccnc2Cl)nn1Cc1ccc(Cl)cc1 [Compound I-6] | > 100 | 1700
CN(C)Cc1ccc(-c2nn(Cc3ccc(Cl)cc3)c(=O)c3ccccc23)c(F)n1 [Compound I-33] | > 100 | 1300
COCCCNc1ccc(-c2nn(Cc3ccc(C#N)cc3)c(=O)c3ccccc23)c(F)n1 [IV-32] | 43.7 | 191
COc1ncc(-c2nn(Cc3ccc(Cl)cc3)c(=O)c3ccccc23)cn1 [II-3] | > 100 | 8800
N#Cc1ccc(Cn2nc(-c3cc(Cl)c(NCCCC(=O)O)nc3F)c3ccccc3c2=O)cc1 [IV-52] | > 100 | 84.5
CCNCCCNc1ccc(-c2nn(Cc3ccc(C#N)cc3)c(=O)c3ccccc23)c(F)n1 [IV-53] | 18.1 | 1070
COCCNc1ccc(-c2nn(Cc3ccc(C#N)cc3)c(=O)c3ccccc23)c(F)n1 [IV-26] | > 100 | 430

Structure (SMILES) | CC50 at 8 days [1] [µM] | IC50 (HBV) [nM]
N#Cc1ccc(Cn2nc(-c3cc(Cl)c(NCCOCC(=O)O)nc3F)c3ccccc3c2=O)cc1 [IV-60] | > 100 | 766
CC(C)(C)OC(=O)CCNc1nc(F)c(-c2nn(Cc3ccc(C#N)cc3)c(=O)c3ccccc23)cc1Cl [IV-62] | > 100 | 444
N#Cc1ncc(-c2nn(Cc3ccc(Cl)cc3)c(=O)c3ccccc23)cn1 [II-2] | 32.4 | 4500
N#Cc1ccc(Cn2nc(-c3ccc(NCCO)nc3F)c3ccccc3c2=O)cc1 [IV-76] | > 100 | 202
CCOCCOCCNc1nc(F)c(-c2nn(Cc3ccc(C#N)cc3)c(=O)c3ccccc23)cc1Cl [IV-57] | ≥ 100 | 87.8
Cc1cnc(-c2nn(Cc3ccc(Cl)cc3)c(=O)c3ccccc23)cn1 [III-1] | 87.8 | 6200
COC(=O)CCNc1ccc(-c2nn(Cc3ccc(C#N)cc3)c(=O)c3ccccc23)c(F)n1 [IV-72] | > 100 | 1720
COCNc1ccc(-c2nn(Cc3ccc(Cl)cc3)c(=O)c3ccccc23)c(F)n1 [Compound I-15] | > 100 | 6200
CCOC(=O)CCCNc1ccc(-c2nn(Cc3ccc(C#N)cc3)c(=O)c3ccccc23)c(F)n1 [IV-35] | > 100 | 1230
N#Cc1ccc(Cn2nc(-c3ccc(CO)nc3F)c3ccccc3c2=O)cc1 [IV-20] | > 100 | 300
Cc1cnc(F)c(-c2nn(Cc3ccc(C#N)cc3)c(=O)c3ccccc23)c1 [Compound I-44] | 31.5 | 294
N#Cc1ccc(Cn2nc(-c3ccc(NCCCO)nc3F)c3ccccc3c2=O)cc1 [IV-66] | 94 | 180
Cc1ccc(-c2nn(Cc3ccc(Cl)cc3)c(=O)c3cc(C(F)(F)F)c(C(F)(F)F)cc23)c(F)n1 [Compound V-9] | > 100 | 1300
O=c1c2ccccc2c(-c2ccc(NC3COC3)nc2F)nn1Cc1ccc(Cl)cc1 [Compound I-17] | > 100 | 1600
CS(=O)(=O)CCNc1ccc(-c2nn(Cc3ccc(C#N)cc3)c(=O)c3ccccc23)c(F)n1 [IV-74] | > 100 | 130
N#Cc1ccc(Cn2nc(-c3ccc(N)nc3C#N)c3ccccc3c2=O)cc1 [IV-7] | > 100 | 800
N#Cc1ccc(Cn2nc(-c3cc(Cl)cnc3F)c3ccccc3c2=O)cc1 [Compound I-40] | > 100 | 51
CCOCCNc1ccc(-c2nn(Cc3ccc(C#N)cc3)c(=O)c3ccccc23)c(F)n1 [IV-41] | > 100 | 325
[2H]C([2H])(c1ccc(Cl)cc1)n1nc(-c2ccc(F)nc2F)c2ccccc2c1=O [Compound I-27] | > 100 | 300
